Test results published in US20250382344A1, “Soluble GLP1/GIP/NPY2 Receptor Triple Agonists” (Boehringer Ingelheim International GmH, priority 2024, published 2025).
Read-outs that look alike come from different tables or passages of the source.

Tests used:
[1] = Solubility in 0.1 M phosphate buffer at pH 7; assay type: physicochemical; conditions: 0.1 M phosphate buffer at pH 7, 10 mg/mL final peptide concentration, shaking 2 hours at room temperature, peptides as TFA-salts; measured sample pH 6.5-7.0
[2] = target: T1, hGLP1R (Homo sapiens, UniProt P43220); assay: hGLP1R CreLuc assay in 0.5% and 100% plasma (HEK-293 CRE-luciferase reporter cells); assay type: cell-based; conditions: HEK-293 reporter cells
T1 construct: expressed in transfected cells; host or cells: HEK-293 CRE-luciferase reporter cells
T1 sequence (P43220 24-463): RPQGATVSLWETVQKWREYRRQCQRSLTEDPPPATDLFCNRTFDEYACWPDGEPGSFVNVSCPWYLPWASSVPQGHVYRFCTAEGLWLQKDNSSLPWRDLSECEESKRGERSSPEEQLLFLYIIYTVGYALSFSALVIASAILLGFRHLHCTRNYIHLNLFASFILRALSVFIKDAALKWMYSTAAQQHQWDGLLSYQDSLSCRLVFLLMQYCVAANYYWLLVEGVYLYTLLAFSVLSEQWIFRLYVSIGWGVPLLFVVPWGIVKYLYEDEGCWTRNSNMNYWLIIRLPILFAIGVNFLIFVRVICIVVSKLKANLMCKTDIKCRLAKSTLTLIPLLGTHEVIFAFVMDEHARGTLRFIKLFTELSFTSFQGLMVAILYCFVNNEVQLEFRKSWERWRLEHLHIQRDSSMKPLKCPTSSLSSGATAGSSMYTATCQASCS

[3] = target: T2, hGIPR (Homo sapiens, UniProt P48546); assay: hGIPR CreLuc assay in 0.5% and 100% plasma (CHO CRE-luciferase reporter cells); assay type: cell-based
T2 construct: expressed in transfected cells; host or cells: CHO CRE-luciferase reporter cells
T2 sequence (P48546 22-466): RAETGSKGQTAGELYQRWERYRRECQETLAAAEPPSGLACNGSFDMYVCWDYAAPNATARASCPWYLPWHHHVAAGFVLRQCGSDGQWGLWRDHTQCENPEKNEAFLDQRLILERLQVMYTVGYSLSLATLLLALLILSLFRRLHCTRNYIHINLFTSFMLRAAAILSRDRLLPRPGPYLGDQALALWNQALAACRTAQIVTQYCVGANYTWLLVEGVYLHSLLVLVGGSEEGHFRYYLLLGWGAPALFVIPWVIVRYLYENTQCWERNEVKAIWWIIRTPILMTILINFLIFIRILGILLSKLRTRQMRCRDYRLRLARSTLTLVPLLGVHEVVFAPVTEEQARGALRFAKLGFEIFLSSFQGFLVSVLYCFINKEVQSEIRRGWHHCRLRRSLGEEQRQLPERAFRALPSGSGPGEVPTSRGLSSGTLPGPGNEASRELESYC

[4] = 0.5% human plasma, read-out: hGLP1R 0.5% hP
[5] = 0.5% human plasma, read-out: hGIPR 0.5% hP

Compound | solubility at 2 h [1] | EC50 [2, 4] | EC50 [3, 5] | EC50 ([3]; 100% human plasma, read-out: hGIPR 100% hP) | EC50 ([2]; 100% human plasma, read-out: hGLP1R 100% hP)
CC[C@H](C)[C@H](NC(=O)[C@H](CC(C)C)NC(=O)[C@H](Cc1c[nH]cn1)NC(=O)[C@H](CCCNC(=N)N)NC(=O)[C@@H](NC(=O)[C@H](Cc1ccccc1)NC(=O)[C@H](C)NC(=O)C(C)(C)NC(=O)[C@H](CCC(N)=O)NC(=O)[C@H](C)NC(=O)[C@H](CCC(N)=O)NC(=O)[C@H](CCC(=O)O)NC(=O)[C@H](CCC(=O)O)NC(=O)[C@H](CC(C)C)NC(=O)C(C)(C)NC(=O)[C@@H](NC(=O)[C@H](CO)NC(=O)[C@H](Cc1ccc(O)cc1)NC(=O)[C@H](CC(=O)O)NC(=O)[C@H](CO)NC(=O)[C@@H](NC(=O)[C@H](Cc1ccccc1)NC(=O)[C@@H](NC(=O)CNC(=O)[C@H](CCC(=O)O)NC(=O)C(C)(C)NC(=O)[C@@H](N)Cc1ccc(O)cc1)[C@@H](C)O)[C@@H](C)O)[C@@H](C)CC)C(C)C)C(=O)N[C@@H](CC(N)=O)C(=O)N[C@@H](CCCCNC(=O)[C@@H](N)CCCCNC(=O)CC[C@H](NC(=O)CC[C@H](NC(=O)CC[C@H](NC(=O)CC[C@H](NC(=O)CC[C@H](NC(=O)CCCCCCCCCCCCCCCCC(=O)O)C(=O)O)C(=O)O)C(=O)O)C(=O)O)C(=O)O)C(=O)NC(C)(C)C(=O)N[C@H](C(=O)N[C@@H](CCCNC(=N)N)C(=O)N[C@@H](CCC(N)=O)C(=O)N[C@@H](CCCNC(=N)N)C(=O)N[C@@H](Cc1ccc(O)cc1)C(N)=O)[C@@H](C)O [Compound 48, Y-Aib-E-G-T-F-T-S-D-Y-S-I-Aib-L-E-E-Q-A-Q-Aib-A-F-V-R-H-L-I-N-K(1,3)-Aib-T-R-Q-R-Y-NH2.C18DA-gGlu-gGlu-gGlu-gGlu-gGlu-eLys(1,2)] | 7700 µg/mL | 0.5 nM | 0.1 nM |  | 
CC[C@H](C)[C@H](NC(=O)[C@H](CC(C)C)NC(=O)[C@H](Cc1c[nH]cn1)NC(=O)[C@H](CCCNC(=N)N)NC(=O)[C@@H](NC(=O)[C@H](Cc1ccccc1)NC(=O)[C@H](C)NC(=O)C(C)(C)NC(=O)[C@H](CCC(N)=O)NC(=O)[C@H](C)NC(=O)[C@H](CCC(N)=O)NC(=O)[C@H](C)NC(=O)[C@H](CC(=O)O)NC(=O)[C@H](CC(C)C)NC(=O)C(C)(C)NC(=O)[C@@H](NC(=O)[C@H](CO)NC(=O)[C@H](Cc1ccc(O)cc1)NC(=O)[C@H](CC(=O)O)NC(=O)[C@H](CO)NC(=O)[C@@H](NC(=O)[C@H](Cc1ccccc1)NC(=O)[C@@H](NC(=O)CNC(=O)[C@H](CCC(=O)O)NC(=O)C(C)(C)NC(=O)[C@@H](N)Cc1ccc(O)cc1)[C@@H](C)O)[C@@H](C)O)[C@@H](C)CC)C(C)C)C(=O)N[C@@H](CC(N)=O)C(=O)N[C@@H](CCCCNC(=O)[C@@H](N)CCCCNC(=O)CC[C@H](NC(=O)CC[C@H](NC(=O)CC[C@H](NC(=O)CC[C@H](NC(=O)CC[C@H](NC(=O)CC[C@H](NC(=O)CCCCCCCCCCCCCCCCC(=O)O)C(=O)O)C(=O)O)C(=O)O)C(=O)O)C(=O)O)C(=O)O)C(=O)NC(C)(C)C(=O)N[C@H](C(=O)N[C@@H](CCCNC(=N)N)C(=O)N[C@@H](CCC(N)=O)C(=O)N[C@@H](CCCNC(=N)N)C(=O)N[C@@H](Cc1ccc(O)cc1)C(N)=O)[C@@H](C)O [Compound 55, Y-Aib-E-G-T-F-T-S-D-Y-S-I-Aib-L-D-A-Q-A-Q-Aib-A-F-V-R-H-L-I-N-K(1,3)-Aib-T-R-Q-R-Y-NH2.C18DA-gGlu-gGlu-gGlu-gGlu-gGlu-gGlu-eLys(1,2)] | 8800 µg/mL | 0.4 nM | 0.4 nM |  | 
CC[C@H](C)[C@H](NC(=O)[C@H](CC(C)C)NC(=O)[C@H](Cc1c[nH]cn1)NC(=O)[C@H](CCCNC(=N)N)NC(=O)[C@@H](NC(=O)[C@H](Cc1ccccc1)NC(=O)[C@H](CCC(=O)O)NC(=O)C(C)(C)NC(=O)[C@H](CCC(N)=O)NC(=O)[C@H](C)NC(=O)[C@H](CCC(N)=O)NC(=O)[C@H](CCCCN)NC(=O)[C@H](CCC(=O)O)NC(=O)[C@H](CC(C)C)NC(=O)C(C)(C)NC(=O)[C@@H](NC(=O)[C@H](CO)NC(=O)[C@H](Cc1ccc(O)cc1)NC(=O)[C@H](CC(=O)O)NC(=O)[C@H](CO)NC(=O)[C@@H](NC(=O)[C@H](Cc1ccccc1)NC(=O)[C@@H](NC(=O)CNC(=O)[C@H](CCC(=O)O)NC(=O)C(C)(C)NC(=O)[C@@H](N)Cc1ccc(O)cc1)[C@@H](C)O)[C@@H](C)O)[C@@H](C)CC)C(C)C)C(=O)N[C@@H](CC(N)=O)C(=O)N[C@@H](CCCCNC(=O)[C@@H](N)CCCCNC(=O)CC[C@H](NC(=O)CC[C@H](NC(=O)CC[C@H](NC(=O)CC[C@H](NC(=O)CCCCCCCCCCCCCCCCC(=O)O)C(=O)O)C(=O)O)C(=O)O)C(=O)O)C(=O)NC(C)(C)C(=O)N[C@H](C(=O)N[C@@H](CCCNC(=N)N)C(=O)N[C@@H](CCC(N)=O)C(=O)N[C@@H](CCCNC(=N)N)C(=O)N[C@@H](Cc1ccc(O)cc1)C(N)=O)[C@@H](C)O [Compound 163, Y-Aib-E-G-T-F-T-S-D-Y-S-I-Aib-L-E-K-Q-A-Q-Aib-E-F-V-R-H-L-I-N-K(1,3)-Aib-T-R-Q-R-Y-NH2.C18DA-gGlu-gGlu-gGlu-gGlu-eLys(1,2)] | 5000 µg/mL | 0.1 nM | 0.2 nM | 5.9 nM | 
CC[C@H](C)[C@H](NC(=O)[C@H](CC(C)C)NC(=O)[C@H](Cc1c[nH]cn1)NC(=O)[C@H](CCCNC(=N)N)NC(=O)[C@@H](NC(=O)[C@H](Cc1ccccc1)NC(=O)[C@H](C)NC(=O)C(C)(C)NC(=O)[C@H](CCC(N)=O)NC(=O)[C@H](C)NC(=O)[C@H](CCC(N)=O)NC(=O)[C@H](CCCCN)NC(=O)[C@H](CCC(=O)O)NC(=O)[C@H](CC(C)C)NC(=O)C(C)(C)NC(=O)[C@@H](NC(=O)[C@H](CO)NC(=O)[C@H](Cc1ccc(O)cc1)NC(=O)[C@H](CC(=O)O)NC(=O)[C@H](CO)NC(=O)[C@@H](NC(=O)[C@H](Cc1ccccc1)NC(=O)[C@@H](NC(=O)CNC(=O)[C@H](CCC(=O)O)NC(=O)C(C)(C)NC(=O)[C@@H](N)Cc1ccc(O)cc1)[C@@H](C)O)[C@@H](C)O)[C@@H](C)CC)C(C)C)C(=O)N[C@@H](CC(N)=O)C(=O)N[C@@H](CCCCNC(=O)CC[C@H](NC(=O)CC[C@H](NC(=O)CC[C@H](NC(=O)CC[C@H](NC(=O)CC[C@H](NC(=O)CC[C@H](NC(=O)CCCCCCCCCCCCCCCCC(=O)O)C(=O)O)C(=O)O)C(=O)O)C(=O)O)C(=O)O)C(=O)O)C(=O)NC(C)(C)C(=O)N[C@H](C(=O)N[C@@H](CCCNC(=N)N)C(=O)N(C)[C@@H](CCC(N)=O)C(=O)N[C@@H](CCCNC(=N)N)C(=O)N[C@@H](Cc1ccc(O)cc1)C(N)=O)[C@@H](C)O [Compound 2, Y-Aib-E-G-T-F-T-S-D-Y-S-I-Aib-L-E-K-Q-A-Q-Aib-A-F-V-R-H-L-I-N-K(1,3)-Aib-T-R-NMeQ-R-Y-NH2.C18DA-gGlu-gGlu-gGlu-gGlu-gGlu-gGlu(1,2)] | 5000 µg/mL | 0.8 nM | 0.4 nM |  | 
CC[C@H](C)[C@H](NC(=O)[C@H](CC(C)C)NC(=O)[C@H](Cc1c[nH]cn1)NC(=O)[C@H](CCCNC(=N)N)NC(=O)[C@@H](NC(=O)[C@H](Cc1ccccc1)NC(=O)[C@H](C)NC(=O)C(C)(C)NC(=O)[C@H](CCC(N)=O)NC(=O)[C@H](C)NC(=O)[C@H](CCC(=O)O)NC(=O)[C@H](CCC(=O)O)NC(=O)[C@H](CCC(=O)O)NC(=O)[C@H](CC(C)C)NC(=O)C(C)(C)NC(=O)[C@@H](NC(=O)[C@H](CO)NC(=O)[C@H](Cc1ccc(O)cc1)NC(=O)[C@H](CC(=O)O)NC(=O)[C@H](CO)NC(=O)[C@@H](NC(=O)[C@H](Cc1ccccc1)NC(=O)[C@@H](NC(=O)CNC(=O)[C@H](CCC(=O)O)NC(=O)C(C)(C)NC(=O)[C@@H](N)Cc1ccc(O)cc1)[C@@H](C)O)[C@@H](C)O)[C@@H](C)CC)C(C)C)C(=O)N[C@@H](CC(N)=O)C(=O)N[C@@H](CCCCNC(=O)CC[C@H](NC(=O)CC[C@H](NC(=O)CC[C@H](NC(=O)CC[C@H](NC(=O)CCCCCCCCCCCCCCCCC(=O)O)C(=O)O)C(=O)O)C(=O)O)C(=O)O)C(=O)NC(C)(C)C(=O)N[C@H](C(=O)N[C@@H](CCCNC(=N)N)C(=O)N[C@@H](CCC(N)=O)C(=O)N[C@@H](CCCNC(=N)N)C(=O)N[C@@H](Cc1ccc(O)cc1)C(N)=O)[C@@H](C)O [Compound 25, Y-Aib-E-G-T-F-T-S-D-Y-S-I-Aib-L-E-E-E-A-Q-Aib-A-F-V-R-H-L-I-N-K(1,3)-Aib-T-R-Q-R-Y-NH2.C18DA-gGlu-gGlu-gGlu-gGlu(1,2)] | 4800 µg/mL | 0.7 nM | 0.4 nM |  | 2 nM
